Converted amounts (≈) assume the structure as drawn.
System: Escherichia coli
Experiment: In vivo antibacterial activity against Escherichia coli GR501 harboring lig251 temperature-sensitive mutant gene transformed with plasmid encoding Mycobacterium tuberculosis NAD+ DNA ligase assessed as growth inhibition after 20 hrs by microdilution assay
Type: functional
Settings: GR501, 20 h

Row | Compound | MIC
1 | O=C1C2(CCCC13CC3c1ccc(F)cc1)CC2c1ccc(F)cc1 (configuration not stated) | 44.3 µM (≈ 15 µg/mL)
2 | O=C1C2(CCCC13CC3c1ccc(Br)cc1)CC2c1ccc(Br)cc1 (configuration not stated) | 52.1 µM (≈ 24 µg/mL)
